Laboratory results as given in ChEMBL document CHEMBL1201862, “PubChem BioAssay data set” (2004).
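Cells were grown in 96-well plates and exposed to each compound for 48 hours at five concentrations; endpoints were interpolated linearly between bracketing concentrations, or set to the highest concentration if not reached. Abbreviation: GI50, concentration required for 50% inhibition of growth.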 The source made the active and inactive calls. No stated cut-off is given here; in the data, active = GI50 up to about 1.1 µM and inactive = higher.

Columns and labels:
Experiment in all cases: inhibition of tumour cell growth, NCI panel, 48 h
CCRF-CEM = tested on: CCRF-CEM
COLO 205 = tested on: COLO 205
K562 = tested on: K562
LOX IMVI = tested on: LOX IMVI
LXFL 529 = tested on: LXFL 529
M14 = tested on: M14
MOLT-4 = tested on: MOLT-4
Malme-3M = tested on: Malme-3M
NCI-H23 = tested on: NCI-H23
NCI-H460 = tested on: NCI-H460
OVCAR-8 = tested on: OVCAR-8
SK-MEL-28 = tested on: SK-MEL-28
SK-OV-3 = tested on: SK-OV-3
SNB-75 = tested on: SNB-75
HCT-116 = tested on: HCT-116
OVCAR-3 = tested on: OVCAR-3
SR = tested on: SR
A498 = tested on: A498
DU-145 = tested on: DU-145
MCF7 = tested on: MCF7

Measured: GI50

COc1ccc2nc(-c3ccccn3)cc(O)c2c1
inactive: CCRF-CEM 51.2 µM | COLO 205 28 µM | K562 17.4 µM | LOX IMVI 41.2 µM | LXFL 529 41.5 µM | M14 24.2 µM | MOLT-4 28.8 µM | Malme-3M 24 µM | NCI-H23 41.9 µM | NCI-H460 34.7 µM | OVCAR-8 39.8 µM | SK-MEL-28 35.5 µM | SK-OV-3 52.7 µM | SNB-75 18.4 µM

CCOC(=O)C1C(c2ccc([N+](=O)[O-])cc2)NC(c2ccc([N+](=O)[O-])cc2)C(C(=O)OC)S1(=O)=O (configuration not stated)
inactive: CCRF-CEM > 100 µM | COLO 205 > 100 µM | HCT-116 > 100 µM | K562 > 100 µM | LOX IMVI > 100 µM | LXFL 529 > 100 µM | M14 > 100 µM | MOLT-4 > 100 µM | Malme-3M > 100 µM | NCI-H23 > 100 µM | NCI-H460 > 100 µM | OVCAR-3 > 100 µM | OVCAR-8 > 100 µM | SK-MEL-28 > 100 µM | SK-OV-3 > 100 µM | SNB-75 > 100 µM | SR > 100 µM

COC(=O)c1cc2c(c(C(=O)OC)c1O)C(=O)C=CC2=O
inactive: A498 > 41.1 µM | CCRF-CEM 1.63 µM | COLO 205 > 50.2 µM | HCT-116 > 9.1 µM | LOX IMVI 36.4 µM | LXFL 529 11.6 µM | M14 > 44.9 µM | Malme-3M > 40.8 µM | NCI-H23 > 31.6 µM | NCI-H460 > 50.1 µM | OVCAR-3 > 41.2 µM | OVCAR-8 > 21.4 µM | SK-MEL-28 > 39.9 µM | SK-OV-3 > 89.5 µM | SNB-75 9.95 µM

O=C(CSc1nnc(-c2ccc(/N=C\c3ccc(Cl)cc3)cc2)o1)Nc1ccc(Cl)cc1
inactive: CCRF-CEM > 100 µM | COLO 205 > 100 µM | HCT-116 > 100 µM | K562 > 100 µM | LOX IMVI > 100 µM | LXFL 529 > 100 µM | M14 > 100 µM | MOLT-4 > 100 µM | Malme-3M > 100 µM | NCI-H23 > 100 µM | NCI-H460 > 100 µM | OVCAR-8 > 100 µM | SK-MEL-28 > 100 µM | SK-OV-3 > 100 µM | SNB-75 > 100 µM | SR > 100 µM

N#C/C(=C/c1cccnc1)C(=O)c1ccccc1
inactive: CCRF-CEM > 100 µM | COLO 205 > 100 µM | HCT-116 > 100 µM | K562 > 100 µM | LOX IMVI > 100 µM | LXFL 529 > 100 µM | M14 > 100 µM | MOLT-4 > 100 µM | Malme-3M > 100 µM | NCI-H23 > 100 µM | NCI-H460 > 100 µM | OVCAR-3 > 100 µM | OVCAR-8 > 100 µM | SK-MEL-28 > 100 µM | SK-OV-3 > 100 µM | SNB-75 > 100 µM | SR > 100 µM

CC(C)(C)c1cc2c(OC/C=C/c3ccccc3)c(c1)Cc1cc(C(C#N)(OC/C=C/c3ccccc3)OC/C=C/c3ccccc3)cc(c1OC/C=C\c1ccccc1)Cc1cc(C(C)(C)C)cc(c1OC/C=C/c1ccccc1)Cc1cc(C(C#N)(OC/C=C\c3ccccc3)OC/C=C/c3ccccc3)cc(c1OC/C=C\c1ccccc1)C2 (configuration not stated)
inactive: A498 > 100 µM | CCRF-CEM > 100 µM | COLO 205 > 100 µM | DU-145 > 100 µM | HCT-116 > 100 µM | K562 > 100 µM | LOX IMVI 30.1 µM | M14 36.6 µM | MCF7 > 100 µM | MOLT-4 > 100 µM | Malme-3M 83.4 µM | NCI-H23 > 100 µM | NCI-H460 > 100 µM | OVCAR-3 > 100 µM | OVCAR-8 > 100 µM | SK-MEL-28 > 100 µM | SK-OV-3 > 100 µM | SNB-75 > 100 µM | SR 20.7 µM

N#Cc1c2ccccc2cn1-c1ccc(F)cc1
inactive: CCRF-CEM 31 µM | COLO 205 26.2 µM | HCT-116 16.8 µM | K562 26.7 µM | LXFL 529 31.3 µM | M14 35.2 µM | MOLT-4 27.4 µM | Malme-3M 33.7 µM | NCI-H23 17.7 µM | NCI-H460 29.7 µM | OVCAR-3 19.8 µM | OVCAR-8 > 10 µM | SK-MEL-28 47.8 µM | SNB-75 2.61 µM | SR > 10 µM

Cc1cccc(CC(Cc2ccc(C)cc2C(=O)O)C(=O)O)c1 (configuration not stated)
inactive: A498 > 100 µM | CCRF-CEM > 100 µM | COLO 205 > 100 µM | DU-145 > 100 µM | HCT-116 > 100 µM | K562 > 100 µM | LOX IMVI > 100 µM | M14 > 100 µM | MCF7 > 100 µM | MOLT-4 > 100 µM | Malme-3M > 100 µM | NCI-H23 > 100 µM | NCI-H460 > 100 µM | OVCAR-3 > 100 µM | OVCAR-8 > 100 µM | SK-MEL-28 > 100 µM | SK-OV-3 74.1 µM | SNB-75 > 100 µM | SR > 100 µM

COc1ccc(-c2c(C(C)=O)c(C)n(C3OC(COC(C)=O)C(OC(C)=O)C(OC(C)=O)C3OC(C)=O)c(=S)c2C#N)cc1 (configuration not stated)
inactive: A498 > 100 µM | CCRF-CEM 42.3 µM | COLO 205 > 100 µM | DU-145 > 100 µM | HCT-116 72.1 µM | K562 68.5 µM | LOX IMVI 21.9 µM | M14 > 100 µM | MCF7 > 100 µM | MOLT-4 43 µM | Malme-3M > 100 µM | NCI-H23 > 100 µM | NCI-H460 81.5 µM | OVCAR-3 > 100 µM | OVCAR-8 > 100 µM | SK-MEL-28 > 100 µM | SK-OV-3 > 100 µM | SNB-75 75.5 µM | SR > 100 µM

CCOC(=O)/C(=C\c1ccc(N(CCC#N)CCC#N)cc1)NC(=O)c1cc([N+](=O)[O-])ccc1Cl
inactive: A498 > 100 µM | CCRF-CEM 55.1 µM | COLO 205 > 100 µM | HCT-116 > 100 µM | K562 > 100 µM | LOX IMVI 69 µM | LXFL 529 > 100 µM | M14 > 100 µM | MOLT-4 72.6 µM | Malme-3M > 100 µM | NCI-H23 > 100 µM | NCI-H460 > 100 µM | OVCAR-3 63.4 µM | OVCAR-8 > 100 µM | SK-MEL-28 > 100 µM | SK-OV-3 > 100 µM | SNB-75 > 100 µM

Cc1cc2c(c3nocc13)C(=O)c1ccccc1C2=O
inactive: CCRF-CEM > 100 µM | COLO 205 > 100 µM | K562 > 100 µM | LOX IMVI > 100 µM | LXFL 529 > 100 µM | M14 > 100 µM | MOLT-4 > 100 µM | Malme-3M > 100 µM | NCI-H23 > 100 µM | NCI-H460 > 100 µM | OVCAR-3 > 100 µM | OVCAR-8 > 100 µM | SK-MEL-28 > 100 µM | SK-OV-3 > 100 µM | SNB-75 28.6 µM

[N-]=[N+]=NC1C(Br)C(=O)NC(=O)N1[C@H]1C[C@H](O)[C@@H](CO)O1 (some centres not stated)
inactive: A498 > 100 µM | COLO 205 > 100 µM | K562 > 100 µM | LOX IMVI > 100 µM | LXFL 529 > 100 µM | M14 > 100 µM | MOLT-4 > 100 µM | NCI-H23 > 100 µM | NCI-H460 > 100 µM | OVCAR-3 > 100 µM | OVCAR-8 > 100 µM | SK-MEL-28 > 100 µM | SK-OV-3 > 100 µM | SNB-75 > 100 µM
